Laboratory results reported in patent publication US8143290B2, “Chemical compounds 572” (AstraZeneca AB, priority 2006, dated 2012).

molecular target: T1, recombinant human GR (Homo sapiens, UniProt P04150); test: Human Glucocorticoid Receptor (GR) Assay, fluorescence polarization; assay type: binding; details: GS Red tracer, incubated 2 h at r.t., XLfit model 205, read-out: GRhuFL_FP_v2 Mean IC50
T1 construct: purchased Panvera/Invitrogen P2812 (kit P2893)
T1 sequence (P04150 1-777): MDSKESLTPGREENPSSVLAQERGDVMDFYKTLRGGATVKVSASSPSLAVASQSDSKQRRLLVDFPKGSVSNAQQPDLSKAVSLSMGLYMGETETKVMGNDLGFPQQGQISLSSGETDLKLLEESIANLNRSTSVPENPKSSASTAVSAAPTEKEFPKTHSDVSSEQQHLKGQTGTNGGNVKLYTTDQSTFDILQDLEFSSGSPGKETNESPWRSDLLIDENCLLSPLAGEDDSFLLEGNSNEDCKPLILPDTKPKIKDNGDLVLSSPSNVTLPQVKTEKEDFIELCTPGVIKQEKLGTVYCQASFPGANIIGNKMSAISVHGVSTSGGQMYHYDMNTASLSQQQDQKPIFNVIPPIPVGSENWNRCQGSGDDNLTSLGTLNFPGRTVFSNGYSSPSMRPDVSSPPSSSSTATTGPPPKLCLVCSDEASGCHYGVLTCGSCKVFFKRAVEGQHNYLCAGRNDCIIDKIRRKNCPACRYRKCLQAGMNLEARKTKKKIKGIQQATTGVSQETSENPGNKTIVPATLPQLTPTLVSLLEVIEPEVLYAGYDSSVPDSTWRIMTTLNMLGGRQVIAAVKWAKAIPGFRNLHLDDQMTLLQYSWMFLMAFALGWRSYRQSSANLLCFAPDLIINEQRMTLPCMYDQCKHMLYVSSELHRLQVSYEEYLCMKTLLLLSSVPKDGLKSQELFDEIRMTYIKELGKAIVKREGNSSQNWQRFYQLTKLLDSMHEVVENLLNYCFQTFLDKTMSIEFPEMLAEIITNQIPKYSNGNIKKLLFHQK
Outline: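 After 2 h dark incubation at r.t., polarization reported displacement of the GS Red tracer from recombinant GR, in buffer with phosphate, molybdate, EDTA, DTT and Stabilizing Peptide. Controls: dexamethasone (100%) and DMSO (0%).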

SMILES | IC50 [nM]
Cc1cc(C)c([C@@H](Oc2ccc3c(cnn3-c3ccc(F)cc3)c2)[C@H](C)NC(=O)C2(C)CC2)cc1C [Example 224, N-[(1R,2S)-1-[1-(4-fluorophenyl)indazol-5-yl]oxy-1-(2,4,5-trimethylphenyl)propan-2-yl]-1-methyl-cyclopropane-1-carboxamide] | 5.7
C[C@H](NC(=O)C1(C)CC1)[C@H](Oc1ccc2c(cnn2-c2ccc(F)cc2)c1)c1ccc(C(C)(C)C)cc1 [Example 226, N-[(1R,2S)-1-[1-(4-fluorophenyl)indazol-5-yl]oxy-1-(4-tert-butylphenyl)propan-2-yl]-1-methyl-cyclopropane-1 carboxamide] | 7.2
C[C@H](NC(=O)C(C)(F)F)[C@H](Oc1ccc2c(cnn2-c2ccc(F)cc2)c1)c1ccc(F)c(F)c1 [Example 228, N-[(1R,2S)-1-(3,4-difluorophenyl)-1-[1-(4-fluorophenyl)indazol-5-yl]oxy-propan-2-yl]-2,2-difluoro-propanamide] | 8
Cc1ccc([C@@H](Oc2ccc3c(cnn3-c3ccc(F)cc3)c2)[C@H](C)NC(=O)C(C)(F)F)cc1F [Example 229, 2,2-difluoro-N-[(1R,2S)-1-(3-fluoro-4-methyl-phenyl)-1-[1-(4-fluorophenyl)indazol-5-yl]oxy-propan-2-yl]propanamide] | 5.5
COc1ccc([C@@H](Oc2ccc3c(cnn3-c3ccc(F)cc3)c2)[C@H](C)NC(=O)C(C)(F)F)cc1F [Example 231, 2,2-difluoro-N-[(1R,2S)-1-(3-fluoro-4-methoxy-phenyl)-1-[1-(4-fluorophenyl)indazol-5-yl]oxy-propan-2-yl]propanamide] | 5.1
C[C@H](NC(=O)C(C)(F)F)[C@H](Oc1ccc2c(cnn2-c2ccc(F)cc2)c1)c1cccc(Cl)c1 [Example 232, N-[(1R,2S)-1-(3-chlorophenyl)-1-[1-(4-fluorophenyl)indazol-5-yl]oxy-propan-2-yl]-2,2-difluoro-propanamide] | 5.4
Cc1cc(F)ccc1[C@@H](Oc1ccc2c(cnn2-c2ccc(F)cc2)c1)[C@H](C)NC(=O)C(C)(F)F [Example 233, 2,2-difluoro-N-[(1R,2S)-1-(4-fluoro-2-methyl-phenyl)-1-[1-(4-fluorophenyl)indazol-5-yl]oxy-propan-2-yl]propanamide] | 6.1
Cc1ccc(F)cc1[C@@H](Oc1ccc2c(cnn2-c2ccc(F)cc2)c1)[C@H](C)NC(=O)C(C)(F)F [Example 234, 2,2-difluoro-N-[(1R,2S)-1-(5-fluoro-2-methyl-phenyl)-1-[1-(4-fluorophenyl)indazol-5-yl]oxy-propan-2-yl]propanamide] | 6.4
COc1ccc(F)cc1[C@@H](Oc1ccc2c(cnn2-c2ccc(F)cc2)c1)[C@H](C)NC(=O)C(C)(F)F [Example 235, 2,2-difluoro-N-[(1R,2S)-1-(5-fluoro-2-methoxy-phenyl)-1-[1-(4-fluorophenyl)indazol-5-yl]oxy-propan-2-yl]propanamide] | 5.4
COc1c(C)cc([C@@H](Oc2ccc3c(cnn3-c3ccc(F)cc3)c2)[C@H](C)NC(=O)C(C)(F)F)cc1C [Example 236, 2,2-difluoro-N-[(1R,2S)-1-[1-(4-fluorophenyl)indazol-5-yl]oxy-1-(4-methoxy-3,5-dimethyl-phenyl)propan-2-yl]propanamide] | 7.2
C[C@H](NC(=O)C(C)(F)F)[C@H](Oc1ccc2c(cnn2-c2ccc(F)cc2)c1)c1ccc(Cl)cc1 [Example 237, N-[(1R,2S)-1-(4-chlorophenyl)-1-[1-(4-fluorophenyl)indazol-5-yl]oxy-propan-2-yl]-2,2-difluoro-propanamide] | 8.4
C[C@H](NC(=O)C(C)(F)F)[C@H](Oc1ccc2c(cnn2-c2ccc(F)cc2)c1)c1cc(F)cc(Cl)c1 [Example 238, N-[(1R,2S)-1-(3-chloro-5-fluoro-phenyl)-1-[1-(4-fluorophenyl)indazol-5-yl]oxy-propan-2-yl]-2,2-difluoro-propanamide] | 6.8
Cc1cccc([C@@H](Oc2ccc3c(cnn3-c3ccc(F)cc3)c2)[C@H](C)NC(=O)C(C)(F)F)c1 [Example 239, 2,2-difluoro-N-[(1R,2S)-1-[1-(4-fluorophenyl)indazol-5-yl]oxy-1-(3-methylphenyl)propan-2-yl]propanamide] | 9
Cc1ccc([C@@H](Oc2ccc3c(cnn3-c3ccc(F)cc3)c2)[C@H](C)NC(=O)C(C)(C)F)cc1C [Example 240, N-[(1R,2S)-1-(3,4-dimethylphenyl)-1-[1-(4-fluorophenyl)indazol-5-yl]oxy-propan-2-yl]-2-fluoro-2-methyl-propanamide] | 5.9

The next compounds have a lower IC50 than those just listed; values first:

IC50 [nM] | SMILES
4.4 | Cc1ccc(C)c([C@@H](Oc2ccc3c(cnn3-c3ccc(F)cc3)c2)[C@H](C)NC(=O)C2(C)CC2)c1 [Example 215, N-[(1R,2S)-1-(2,5-dimethylphenyl)-1-[1-(4-fluorophenyl)indazol-5-yl]oxy-propan-2-yl]-1-methyl-cyclopropane-1-carboxamide]
4.7 | Cc1ccc([C@@H](Oc2ccc3c(cnn3-c3ccc(F)cc3)c2)[C@H](C)NC(=O)C2(C)CC2)c(C)c1 [Example 216, N-[(1R,2S)-1-(2,4-dimethylphenyl)-1-[1-(4-fluorophenyl)indazol-5-yl]oxy-propan-2-yl]-1-methyl-cyclopropane-1-carboxamide]
3.9 | COc1ccc([C@@H](Oc2ccc3c(cnn3-c3ccc(F)cc3)c2)[C@H](C)NC(=O)C2(C)CC2)cc1F [Example 217, N-[(1R,2S)-1-(3-fluoro-4-methoxy-phenyl)-1-[1-(4-fluorophenyl)indazol-5-yl]oxy-propan-2-yl]-1-methyl-cyclopropane-1 carboxamide]
3.3 | C[C@H](NC(=O)C1(C)CC1)[C@H](Oc1ccc2c(cnn2-c2ccc(F)cc2)c1)c1cccc(Cl)c1 [Example 218, N-[(1R,2S)-1-(3-chlorophenyl)-1-[1-(4-fluorophenyl)indazol-5-yl]oxy-propan-2-yl]-1-methyl-cyclopropane-1-carboxamide]
2.8 | Cc1cc(F)ccc1[C@@H](Oc1ccc2c(cnn2-c2ccc(F)cc2)c1)[C@H](C)NC(=O)C1(C)CC1 [Example 219, N-[(1R,2S)-1-(4-fluoro-2-methyl-phenyl)-1-[1-(4-fluorophenyl)indazol-5-yl]oxy-propan-2-yl]-1-methyl-cyclopropane-1-carboxamide]
4.2 | Cc1ccc(F)cc1[C@@H](Oc1ccc2c(cnn2-c2ccc(F)cc2)c1)[C@H](C)NC(=O)C1(C)CC1 [Example 220, N-[(1R,2S)-1-(5-fluoro-2-methyl-phenyl)-1-[1-(4-fluorophenyl)indazol-5-yl]oxy-propan-2-yl]-1-methyl-cyclopropane-1-carboxamide]
4.4 | COc1c(C)cc([C@@H](Oc2ccc3c(cnn3-c3ccc(F)cc3)c2)[C@H](C)NC(=O)C2(C)CC2)cc1C [Example 221, N-[(1R,2S)-1-[1-(4-fluorophenyl)indazol-5-yl]oxy-1-(4-methoxy-3,5-dimethyl-phenyl)propan-2-yl]-1-methyl-cyclopropane-1-carboxamide]
3.5 | C[C@H](NC(=O)C1(C)CC1)[C@H](Oc1ccc2c(cnn2-c2ccc(F)cc2)c1)c1ccc(Cl)cc1 [Example 222, N-[(1R,2S)-1-(4-chlorophenyl)-1-[1-(4-fluorophenyl)indazol-5-yl]oxy-propan-2-yl]-1-methyl-cyclopropane-1-carboxamide]
3.9 | C[C@H](NC(=O)C1(C)CC1)[C@H](Oc1ccc2c(cnn2-c2ccc(F)cc2)c1)c1cc(F)cc(Cl)c1 [Example 223, N-[(1R,2S)-1-(3-chloro-5-fluoro-phenyl)-1-[1-(4-fluorophenyl)indazol-5-yl]oxy-propan-2-yl]-1-methyl-cyclopropane-1-carboxamide]
4.8 | Cc1cccc([C@@H](Oc2ccc3c(cnn3-c3ccc(F)cc3)c2)[C@H](C)NC(=O)C2(C)CC2)c1 [Example 225, N-[(1R,2S)-1-[1-(4-fluorophenyl)indazol-5-yl]oxy-1-(3-methylphenyl)propan-2-yl]-1-methyl-cyclopropane-1-carboxamide]
3.1 | COc1ccccc1[C@@H](Oc1ccc2c(cnn2-c2ccc(F)cc2)c1)[C@H](C)NC(=O)C1(C)CC1 [Example 227, N-[(1R,2S)-1-[1-(4-fluorophenyl)indazol-5-yl]oxy-1-(2-methoxyphenyl)propan-2-yl]-1-methyl-cyclopropane-1-carboxamide]
4.8 | C[C@H](NC(=O)C(C)(F)F)[C@H](Oc1ccc2c(cnn2-c2ccc(F)cc2)c1)c1cccc(F)c1 [Example 230, 2,2-difluoro-N-[(1R,2S)-1-(3-fluorophenyl)-1-[1-(4-fluorophenyl)indazol-5-yl]oxy-propan-2-yl]propanamide]
